Laboratory results: publication PMC5374441 (Scientific Reports, 2017)
Bridge positions count the residues as written; N and C are the ends. Peptide text beside a SMILES is read from it.

Legend:
Ls-AChBP = target: T1, Ls-AChBP (Lymnaea stagnalis, UniProt P58154); assay: biochemical; type: binding; conditions: SEM
T1 construct: made in house

Ac-AChBP = target: T2, Ac-AChBP (Aplysia californica, UniProt Q8WSF8); assay: biochemical; type: binding; conditions: SEM
T2 construct: made in house

human α3β4 nAChR = human α3β4 nAChR (Homo sapiens, UniProt P30926+P32297); assay: cell-based
human α7 nAChR = human α7 nAChR (Homo sapiens, UniProt P36544); assay: cell-based; conditions: SEM
human α7 nAChR, sequence (P36544 23-502 limits assumed): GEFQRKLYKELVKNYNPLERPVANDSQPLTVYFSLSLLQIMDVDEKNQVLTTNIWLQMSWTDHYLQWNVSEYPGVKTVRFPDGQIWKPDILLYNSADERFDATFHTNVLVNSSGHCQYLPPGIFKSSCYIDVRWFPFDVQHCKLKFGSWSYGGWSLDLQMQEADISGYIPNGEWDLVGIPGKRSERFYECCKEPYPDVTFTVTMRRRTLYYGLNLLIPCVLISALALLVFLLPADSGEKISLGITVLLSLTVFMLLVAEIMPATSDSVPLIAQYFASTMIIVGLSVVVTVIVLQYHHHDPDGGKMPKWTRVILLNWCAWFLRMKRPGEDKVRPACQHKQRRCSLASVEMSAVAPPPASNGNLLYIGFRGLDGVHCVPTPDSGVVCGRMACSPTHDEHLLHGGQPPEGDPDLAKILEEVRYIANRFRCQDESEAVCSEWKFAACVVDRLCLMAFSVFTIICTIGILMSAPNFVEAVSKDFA

human α3β4 nAChR, sequence (P32297 32-505 limits assumed): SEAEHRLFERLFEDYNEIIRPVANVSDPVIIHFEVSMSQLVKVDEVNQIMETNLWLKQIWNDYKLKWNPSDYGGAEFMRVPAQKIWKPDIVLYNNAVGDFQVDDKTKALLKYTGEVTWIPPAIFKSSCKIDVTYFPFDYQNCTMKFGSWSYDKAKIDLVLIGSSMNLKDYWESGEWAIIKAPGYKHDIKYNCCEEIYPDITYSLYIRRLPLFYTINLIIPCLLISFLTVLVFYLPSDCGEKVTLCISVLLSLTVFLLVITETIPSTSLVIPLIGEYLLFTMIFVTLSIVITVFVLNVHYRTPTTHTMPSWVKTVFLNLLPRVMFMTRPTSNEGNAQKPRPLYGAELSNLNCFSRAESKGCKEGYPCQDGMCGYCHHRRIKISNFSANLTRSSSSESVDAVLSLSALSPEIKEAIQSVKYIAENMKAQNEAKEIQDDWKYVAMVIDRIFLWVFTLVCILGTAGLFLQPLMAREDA
human α3β4 nAChR, sequence (P30926 22-498 limits assumed): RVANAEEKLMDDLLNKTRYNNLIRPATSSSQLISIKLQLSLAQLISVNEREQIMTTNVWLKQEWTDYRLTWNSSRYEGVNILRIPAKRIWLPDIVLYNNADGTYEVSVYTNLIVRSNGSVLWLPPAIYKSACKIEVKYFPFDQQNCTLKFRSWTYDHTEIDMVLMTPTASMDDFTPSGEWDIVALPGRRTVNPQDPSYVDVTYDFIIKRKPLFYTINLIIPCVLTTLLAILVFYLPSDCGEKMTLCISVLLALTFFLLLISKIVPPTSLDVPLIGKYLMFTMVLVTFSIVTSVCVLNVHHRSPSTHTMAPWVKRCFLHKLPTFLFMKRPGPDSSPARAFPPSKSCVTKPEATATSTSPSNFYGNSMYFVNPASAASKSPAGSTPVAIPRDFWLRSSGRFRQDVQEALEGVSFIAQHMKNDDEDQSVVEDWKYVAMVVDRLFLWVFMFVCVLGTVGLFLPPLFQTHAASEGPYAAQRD
T2 sequence (Q8WSF8 18-236 limits assumed): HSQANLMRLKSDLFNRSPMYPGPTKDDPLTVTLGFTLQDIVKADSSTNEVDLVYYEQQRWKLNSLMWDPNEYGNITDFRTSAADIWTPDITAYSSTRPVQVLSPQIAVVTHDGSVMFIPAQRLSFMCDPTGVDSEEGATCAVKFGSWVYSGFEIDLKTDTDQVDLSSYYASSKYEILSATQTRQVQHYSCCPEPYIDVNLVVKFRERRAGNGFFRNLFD
T1 sequence (P58154 20-229 limits assumed): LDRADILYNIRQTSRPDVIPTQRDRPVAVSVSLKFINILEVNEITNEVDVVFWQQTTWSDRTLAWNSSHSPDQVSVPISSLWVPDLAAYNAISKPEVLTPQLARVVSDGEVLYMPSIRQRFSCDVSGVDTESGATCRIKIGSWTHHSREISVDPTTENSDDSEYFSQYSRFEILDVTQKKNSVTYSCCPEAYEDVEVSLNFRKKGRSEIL

CC[C@H](C)[C@@H]1NC(=O)[C@H](CC(N)=O)NC(=O)[C@@H]2CCCN2C(=O)[C@H](CC(N)=O)NC(=O)[C@H](CC(N)=O)NC(=O)[C@H](C(C)C)NC(=O)[C@H](CCCNC(=N)N)NC(=O)[C@@H]2CSSC[C@H](NC(=O)CNC(=O)[C@@H](N)CO)C(=O)N[C@@H](CSSC[C@@H](C(N)=O)NC1=O)C(=O)N[C@@H](CO)C(=O)N[C@@H](CC(N)=O)C(=O)N1CCC[C@H]1C(=O)N[C@@H](C)C(=O)N2 [LsIA] (H-SGCCSNPACRVNNPNIC-NH2; disulfide 3-9, 4-17)
IC50 (Ls-AChBP): 210 ± 40 nM
IC50 (Ac-AChBP): 5.44 ± 0.35 nM
IC50 (human α3β4 nAChR): > 10000 nM
IC50 (human α7 nAChR): 70 ± 7 nM
